From patent US20250325636A1, “USE OF ENDOTHELIN RECEPTOR TYPE B AGONISTS FOR THE TREATMENT OF AORTIC VALVE STENOSIS” (INSTITUT NATIONAL DE LA SANTÉ ET DE LA RECHERCHE MÉDICALE, priority 2022, published 2025) come the findings set out here.

The assay has as its system valvular interstitial cells (VIC). The assay is described as follows: Calcium content of valvular interstitial cells cultured in pro-calcifying medium containing inorganic phosphate (o-cresolphtalein-based assay). Format: cell-based, human. To be noted: VIC in procalcifying conditions containing inorganic phosphate (Pi), 10 days, compared to non-treated VIC. The method, then: Valvular endothelial cells (VEC), isolated from human aortic valves, were cultured in a cell perfusion system to assess ET-1 production in different fluid flow shear stress conditions. In addition, valvular interstitial cells (VIC) were cultured in a pro-calcifying culture medium containing inorganic phosphate (Pi) with or without antagonists of either the ETA or ETB receptor antagonists or with the agonist of the ETB receptor IRL 1620 during 10 days. Aortic valves from rats were also cultured in ex vivo and stimulated with ET-1 antagonists. Calcium content was assessed using an o-cresolphtalein-based assay and fluorescence by Osteosens. VEC prepro-ET-1 and VIC osteogenic mRNA expression levels were evaluated by RTqPCR.

“N-Succinyl-[Glu9, Alal U5]-Endothelin 1 fragment 8-21 [IRL-1620]”: the “Calcium content of VIC” value is reported as “decreased the calcium content of VIC”. Also, the “Calcium content of VIC” value (listed as IRL 1620) is given as “decreases their calcium content”.
